From publication PMC8214221, “Sequence determinants in the cathelicidin LL-37 that promote inflammation via presentation of RNA to scavenger receptors” (The Journal of Biological Chemistry, 2021) come the findings set out here.

The structures appear in SMILES notation. Residues, ends and D or L forms follow the SMILES beside them.

Test [1] has as its system NHEKs, IL-6 secretion in response to U1 dsRNA. Nature of the test: IL-6 secretion ELISA in NHEKs. The test is classed as cell-based, human. The note with it: U1 dsRNA 2.5 μg/ml + peptide 2 μM, 18 h, n = 3. In a few lines: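 NHEKs (also HDMECs) exposed to LL-34 parent or alanine-scan peptides at 2 μM, alone or with U1 dsRNA (2.5 μg/ml), for 18 h. Secreted IL-6 in supernatant quantified by sandwich ELISA (n = 3).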
In general terms: An ELISA detects its analyte on a solid surface through an enzyme-linked reagent.

The test system of test [2] is NHEKs, IL6, IFNB1, TSLP, CXCL10 mRNA. Nature of the test: qRT-PCR gene expression in NHEKs. Type of test: cell-based, human. The note with it: 18 h / 8 h (Fig. 1 legend), n = 3; for Gene expression of IL6, IFNB1, and CXCL10, cotreatment with U1 dsRNA: U1 dsRNA 2.5 μg/ml + peptide 2 μM; for Gene expression of TSLP, peptide alone / Basal expression of IL6, IFNB1, and CXCL10, peptide alone: peptide 2 μM alone; for Gene expression of TSLP, peptide alone: GAPDH reference. Here is the method: Protein levels of human IL-6 were analyzed from cell supernatant with ELISA (n = 3). Corresponding MIC values of LL-34 peptides L1A–R34A against Staphylococcus aureus USA300 are shown in the heat map. B, human dermal endothelial cells (HDMECs) were treated with either U1 dsRNA (2.5 μg/ml) or a combination of U1 dsRNA (2.5 μg/ml) and LL-34 peptides (Pep 1–Pep 34 and Pep–parent LL-34) at 2 μM for 18 h. IL-6 ELISA results are shown (n = 3). Green bars denote loss of IL-6 protein secretion compared with parent control shown in red. C, helical wheel plot for LL-34. Amino acids with green circles denote specific residues where replacement with an alanine caused the loss of IL-6 secretion compared with parent LL-34 peptide in NHEKs cotreated with U1 dsRNA. D, in the helical wheel plot for LL-34, circled green amino acids indicate that a substitution caused a loss of vetting in HDMEC. E–H, NHEKs were treated with LL-34-parent peptide (LL-34-P), LL-34-F5A, LL-34-I24A, LL-34-F27A, and LL-34-L31A at 2 μM, either individually or in combination with U1 dsRNA (2.5 μg/ml) for 8 h. Gene expression of IL-6, IFNB1, TSLP, and CXCL10 was assessed with qRT-PCR. GAPDH was used as a reference gene (n = 3) (∗p < 0.05; ∗∗∗∗p < 0.0001). One way-ANOVA was used. IL-6, interleukin 6; LL-34, 34-amino acid peptide; MIC, minimum inhibitory concentration, ns, not significant.
We further looked at mRNA abundance by quantitative RT-PCR (qRT-PCR) to evaluate gene expression for type 1 interferon IFNB1, chemokine CXCL10, and cytokines TSLP and IL6 in NHEKs treated with selected LL-34 parent, LL-34—F5A, I24A, F27A, and L31A—peptides either alone or in combination with U1 dsRNA for 18 h (Fig. 1, E–H).
RNA extracted from cells (Pure Link RNA Isolation Kit; Life Technologies) was quantified on the Nanodrop 2000/200C Spectrophotometer (Thermo Fisher Scientific). About 500 ng of purified RNA was used to synthesize complementary DNA with iScript cDNA Synthesis Kit (Bio-Rad). Predeveloped Taqman (Thermo Fisher Scientific) gene expression assays were used to evaluate mRNA transcript levels. Taqman cycling conditions were used as previously described ([9], [45]). All experiments were performed on a CFX96 system (Bio-Rad). Fold change relative to GAPDH was calculated using the Livak ΔΔCt method ([46]).
(Quantitative PCR measures a nucleic acid by following its amplification.)

Take `CC[C@H](C)[C@H](NC(=O)[C@H](CCCCN)NC(=O)[C@H](CCC(=O)O)NC(=O)[C@H](CCCCN)NC(=O)[C@H](CO)NC(=O)[C@H](CCCCN)NC(=O)[C@H](CCCNC(=N)N)NC(=O)[C@H](Cc1ccccc1)NC(=O)[C@H](Cc1ccccc1)NC(=O)[C@H](CC(=O)O)NC(=O)CNC(=O)[C@H](CC(C)C)NC(=O)[C@@H](N)CC(C)C)C(=O)NCC(=O)N[C@@H](CCCCN)C(=O)N[C@@H](CCC(=O)O)C(=O)N[C@@H](Cc1ccccc1)C(=O)N[C@@H](CCCCN)C(=O)N[C@@H](CCCNC(=N)N)C(=O)N[C@H](C(=O)N[C@H](C(=O)N[C@@H](CCC(N)=O)C(=O)N[C@@H](CCCNC(=N)N)C(=O)N[C@@H](C)C(=O)N[C@@H](CCCCN)C(=O)N[C@@H](CC(=O)O)C(=O)N[C@@H](Cc1ccccc1)C(=O)N[C@@H](CC(C)C)C(=O)N[C@@H](CCCNC(=N)N)C(=O)N[C@@H](CC(N)=O)C(=O)N[C@@H](CC(C)C)C(=O)N[C@H](C(=O)N1CCC[C@H]1C(=O)N[C@@H](CCCNC(=N)N)C(=O)O)C(C)C)C(C)C)[C@@H](C)CC` [LL-34—I24A] (H-LLGDFFRKSKEKIGKEFKRIVQRAKDFLRNLVPR-OH): the “IL-6 protein secretion, cotreatment with U1 dsRNA, vs U1 dsRNA + LL-34 parent” value in test [1] is given as “reduced secretion of IL-6 protein”. For the same compound, in test [2], the “Gene expression of IL6, IFNB1, and CXCL10, cotreatment with U1 dsRNA” value is reported as “reduction in gene expression”; the “Gene expression of TSLP, peptide alone” value is reported as “increased gene expression of TSLP”; the “Basal expression of IL6, IFNB1, and CXCL10, peptide alone” value is “not affected”.

Regarding `CC[C@H](C)[C@H](NC(=O)[C@H](CCCCN)NC(=O)[C@H](CCC(=O)O)NC(=O)[C@H](CCCCN)NC(=O)[C@H](CO)NC(=O)[C@H](CCCCN)NC(=O)[C@H](CCCNC(=N)N)NC(=O)[C@H](Cc1ccccc1)NC(=O)[C@H](Cc1ccccc1)NC(=O)[C@H](CC(=O)O)NC(=O)CNC(=O)[C@H](CC(C)C)NC(=O)[C@@H](N)CC(C)C)C(=O)NCC(=O)N[C@@H](CCCCN)C(=O)N[C@@H](CCC(=O)O)C(=O)N[C@@H](Cc1ccccc1)C(=O)N[C@@H](CCCCN)C(=O)N[C@@H](CCCNC(=N)N)C(=O)N[C@H](C(=O)N[C@H](C(=O)N[C@@H](CCC(N)=O)C(=O)N[C@@H](CCCNC(=N)N)C(=O)N[C@H](C(=O)N[C@@H](CCCCN)C(=O)N[C@@H](CC(=O)O)C(=O)N[C@@H](Cc1ccccc1)C(=O)N[C@@H](CC(C)C)C(=O)N[C@@H](CCCNC(=N)N)C(=O)N[C@@H](CC(N)=O)C(=O)N[C@@H](C)C(=O)N[C@H](C(=O)N1CCC[C@H]1C(=O)N[C@@H](CCCNC(=N)N)C(=O)O)C(C)C)[C@@H](C)CC)C(C)C)[C@@H](C)CC` [LL-34—L31A] (H-LLGDFFRKSKEKIGKEFKRIVQRIKDFLRNAVPR-OH), the “IL-6 protein secretion, cotreatment with U1 dsRNA, vs U1 dsRNA + LL-34 parent” value in test [1] was “reduced secretion of IL-6 protein”. For the same compound, in test [2], the “Gene expression of IL6, IFNB1, and CXCL10, cotreatment with U1 dsRNA” value is listed as “reduction in gene expression”; the “Gene expression of TSLP, peptide alone” value was “increased gene expression of TSLP”; the “Basal expression of IL6, IFNB1, and CXCL10, peptide alone” value is given as “not affected”.
